Reference: patent US10028956B2, “Methods of treating various cancers using an AXL/cMET inhibitor in combination with other agents” (Ignyta, Inc., priority 2013, dated 2018)
Marks after values point to notes of the source that are not given here.

Tests used:
[1] = tested on: NIH3T3/AXL tumor xenografts; assay: Anti-tumor efficacy in NIH3T3/AXL tumor xenografts; assay type: in vivo, mice; settings: 0.3, 1 or 10 mg/kg PO qd, all doses tested
Procedure: The engineered NIH3T3/AXL cell line was generated as follows. The human AXL cDNA was subcloned into the pQCXIP vector and the sequences were confirmed by sequencing at Children's Hospital of Philadelphia. PT67 cells (5×10^5) in 4 mL DMEM+10% FBS were seeded in each well of 6-well plates (Cat^#353046, Becton Dickinson, Franklin Lakes, N.J.) and cultured at 37° C. in a humidified incubator with 5% CO2 overnight. The cells were transfected with 2 μg of pQCXIP-AXL with Lipofectamine™ 2000 (Cat#52887, Invitrogen, Carlsbad, Calif.) transfection reagent per the manufacturer's protocol. In brief, the DNA in 500 μL culture media was mixed with 500 μL media containing 20 μL Lipofectamine™ 2000 transfection reagent, and the mixture was incubated at room temperature for 20 minutes. […]
NIH3T3/AXL cells were collected and resuspended in DMEM medium at density of 5×10^7/mL. […] The mice were monitored and the tumor sizes were measured. […] The length (L) and width (W) of each tumor were measured with a vernier caliper and the mouse body weight was determined every two to three days. Tumor volumes were calculated with the formula of 0.5236*L*W*(L+W)/2. […] Plasma and tumor samples were obtained at 2 hours post final dose at each dose level, and the compound levels in plasma and tumor lysates were measured by LC-MS/MS.

[2] = tested on: CTG-0165 erlotinib-insensitive primary NSCLC human TumorGraft; assay: NSCLC TumorGraft model CTG-0165; assay type: in vivo, mice; settings: for % Tumor Growth Inhibition: CTG-0165, 37 days
Procedure: Methods (for the experiments shown in FIGS. 10 and 11) • Female immunocompromised nu/nu mice (Harlan) between 6-9 weeks of age were housed on irradiated papertwist-enriched ⅛″ corncob bedding (Sheperd) in individual HEPA ventilated cages (Innocage® IVC, Innovive USA) on a 12-hour light-dark cycle at 68-74° F. (20-23° C.) and 30-70% humidity. Animals were fed water ad libitum (reverse osmosis, 2 ppm Cl2) and an irradiated Test rodent diet (Teklad 2919) consisting of 19% protein, 9% fat, and 4% fiber. • Tumor Models: Champions TumorGraft models of NSCLC are owned by Champions Oncology. In this study, animals were implanted unilaterally on the right flank with tumor fragments harvested from host animals. […] Erlotinib (manufacturer: OSI Pharmaceuticals; National Drug Code: 50242-062-01; Lot #: US0002) was formulated using 100% PEG-400 as the vehicle according to manufacturer's specifications.
Efficacy measurements: Beginning Day 0, tumor dimensions were measured twice weekly by digital caliper (Fowler Ultra-Cal IV) and data including individual and mean estimated tumor volumes (Mean TV±SEM) were recorded for each group; tumor volume was calculated using the formula TV=width^2×length×0.52. At study completion, percent tumor growth inhibition (% TGI) values were calculated and reported for each treatment group (T) versus control (C) using initial (i) and final (f) tumor measurements by the formula: % TGI=1−Tf−Ti/Cf−C; single agent or combination therapies resulting in a TGI>50 at study completion are considered active in the tested model at the evaluated treatment regimen according to NCI guidelines. Individual mice reporting a tumor volume ≤50% of the Day 0 measurement for two consecutive measurements over a seven day period were considered partial responders (PR). If the PR persisted until study completion, percent tumor regression (% TR) was determined using the formula: % TR=1−Tf/Ti×100; a mean value was calculated if multiple PR mice occurred in one group. Individual mice lacking palpable tumors (<4×4 mm^2 for two consecutive measurements over a seven day period) were classified as complete responders (CR); a CR that persisted until study completion was considered a tumor-free survivor (TFS). TFS animals are excluded from efficacy calculations. Statistical differences in tumor volume were determined using a two-tailed One-Way Analysis of Variance (ANOVA) followed by the Dunett's multiple comparisons test comparing treated groups with control and combinations with standard agent alone when possible. All data collected in this study was managed electronically and stored on a redundant server system.

## COc1cc2nccc(Oc3ccc(NC(=O)c4cn(C(C)C)c(=O)n(-c5ccc(F)cc5)c4=O)cc3F)c2cc1OC [CEP-40783, 3-(4-Fluorophenyl)-1-isopropyl-2,4-dioxo-1,2,3,4-tetrahydropyrimidine-5-carboxylic acid [4-(6,7-dimethoxyquinolin-4-yloxy)-3-fluorophenyl]-amide]
[1]
  anti-tumor efficacy (tumor volume): complete tumor regressions
[2]; 10 mg/kg po/qd
  % Tumor Growth Inhibition: 116%*†
[2]; 30 mg/kg po/qd
  % Tumor Growth Inhibition: 118%*†
[2]; CTG-0165, oral 10 mg/kg and 30 mg/kg
  efficacy in erlotinib-insensitive TumorGraft: tumor regressions
